Source: PubChem BioAssay AID330 (DTP/NCI, 2004)
“And” between values parts separate entries of the source, which are not always exact repeats. Equal entries are not always repeated. Inconclusive results and toxic doses are left out.

System: P388 leukemia ip, CD2F1 mice, survival T/C
Test: NCI In Vivo Anticancer Drug Screen. Data for tumor model P388 Leukemia (intraperitoneal) in CD2F1 (CDF1) mice
Conditions: endpoint: median survival time, higher = longer survival
Method in brief: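 Mice carrying the transplanted tumor received test compound or vehicle. Survival was recorded in each group, and the value is the treated-group measurement divided by that of the vehicle-treated control group.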

[1] = dose: 60.0 mg/kg/injection, schedule: Q01DX005 (ip), vehicle: Klucel (hydroxypropylcellulose) (HPC)
[2] = dose: 120.0 mg/kg/injection, schedule: Q01DX005 (ip), vehicle: Klucel (hydroxypropylcellulose) (HPC)
[3] = dose: 240.0 mg/kg/injection, schedule: Q01DX005 (ip), vehicle: Klucel (hydroxypropylcellulose) (HPC)
[4] = dose: 100.0 mg/kg/injection, schedule: Q01DX009 (ip), vehicle: saline with Tween-80
[5] = dose: 50.0 mg/kg/injection, schedule: Q01DX009 (ip), vehicle: saline

Q: With COc1c(OCC(O)CN2CCOCC2)c2c(C)coc2c2ccoc12 (stereo unspecified) as the molecule, how does the T/C [1] read?
A: 100 % of control

Q: What about the T/C [2] of the same molecule?
A: 105 % of control

Q: What does the source list for CCOC(=O)c1cc(=O)c2c(OC)ccc(Cl)c2[nH]1?
A: T/C [1]: 100 % of control; T/C [2]: 99 % of control; T/C [3]: 96 % of control

Q: With Cc1csc(/N=C2\N/C(=N\c3nc(C)cs3)c3ccccc32)n1 as the molecule, how does the T/C (dose: 50.0 mg/kg/injection, schedule: Q01DX009 (ip), vehicle: saline with Tween-80) read?
A: 88 % of control

Q: What about the T/C [4] of the same molecule?
A: 86 % of control

Q: Which T/C (dose: 1.56 mg/kg/injection, schedule: Q04DX003 (ip), vehicle: distilled water + Tween-80) does the source give for Cc1c2c(C(N)=O)nccc2c(C)c2c1c1ccccc1n2Cc1ccccc1 here?
A: 89 % of control

Q: And the T/C (dose: 3.13 mg/kg/injection, schedule: Q04DX003 (ip), vehicle: distilled water + Tween-80)?
A: 89 % of control

Q: What about the T/C (dose: 12.5 mg/kg/injection, schedule: Q04DX003 (ip), vehicle: distilled water + Tween-80) of the same molecule?
A: 86 % of control

Q: And the T/C (dose: 25.0 mg/kg/injection, schedule: Q04DX003 (ip), vehicle: distilled water + Tween-80)?
A: 87 % of control

Q: And the T/C (dose: 50.0 mg/kg/injection, schedule: Q04DX003 (ip), vehicle: distilled water + Tween-80)?
A: 100 % of control

Q: And the T/C (dose: 100.0 mg/kg/injection, schedule: Q04DX003 (ip), vehicle: distilled water + Tween-80)?
A: 95 % of control

Q: What about the T/C (dose: 200.0 mg/kg/injection, schedule: Q04DX003 (ip), vehicle: distilled water + Tween-80) of the same molecule?
A: 101 % of control

Q: Which T/C (dose: 6.25 mg/kg/injection, schedule: Q01DX005 (ip), vehicle: Klucel (hydroxypropylcellulose) (HPC)) does the source give for CCCCCCCCCCCCCCC1(C(=O)OC)CO1 (stereo unspecified) here?
A: 94 % of control

Q: What about the T/C (dose: 12.5 mg/kg/injection, schedule: Q01DX005 (ip), vehicle: Klucel (hydroxypropylcellulose) (HPC)) of the same molecule?
A: 94 % of control

Q: What about the T/C (dose: 50.0 mg/kg/injection, schedule: Q01DX005 (ip), vehicle: Klucel (hydroxypropylcellulose) (HPC)) of the same molecule?
A: 102 % of control

Q: For O=C(Nn1c(=S)[nH]c2ccccc2c1=O)c1ccc([N+](=O)[O-])cc1, which T/C (dose: 60.0 mg/kg/injection, schedule: Q01DX005 (ip), vehicle: Klucel + Tween-80) is on record?
A: 93 % of control

Q: And the T/C (dose: 120.0 mg/kg/injection, schedule: Q01DX005 (ip), vehicle: Klucel + Tween-80)?
A: 87 % of control

Q: What does the source list for O=C(CCCCCO)c1nc2ccccc2s1?
A: T/C [1]: 100 % of control; T/C [2]: 102 % of control; T/C [3]: 94 % of control

Q: With O=C(O)/C=C/c1ccc([N+](=O)[O-])cc1 as the molecule, how does the T/C [4] read?
A: 100 % of control

Q: And the T/C (dose: 200.0 mg/kg/injection, schedule: Q01DX009 (ip), vehicle: saline with Tween-80)?
A: 105 % of control

Q: CCNc1ccc(C(=O)c2cccc(N)c2)cc1N was tested. Which T/C (dose: 60.0 mg/kg/injection, schedule: Q01DX005 (ip), vehicle: saline with Tween-80) did it give?
A: 96 % of control

Q: What about the T/C (dose: 120.0 mg/kg/injection, schedule: Q01DX005 (ip), vehicle: saline with Tween-80) of the same molecule?
A: 96 % of control

Q: And the T/C (dose: 240.0 mg/kg/injection, schedule: Q01DX005 (ip), vehicle: saline with Tween-80)?
A: 89 % of control

Q: How did the T/C (dose: 12.5 mg/kg/injection, schedule: Q01DX009 (ip), vehicle: Klucel (hydroxypropylcellulose) (HPC)) turn out when C=C1CC23CC4C5C6(C)CC(O)CC57C(C2C(O)C1C(O)C37)N4C6 (stereo unspecified) was run?
A: 101 % of control

Q: What about the T/C (dose: 25.0 mg/kg/injection, schedule: Q01DX009 (ip), vehicle: Klucel (hydroxypropylcellulose) (HPC)) of the same molecule?
A: 106 % of control

Q: What about the T/C (dose: 50.0 mg/kg/injection, schedule: Q01DX009 (ip), vehicle: Klucel (hydroxypropylcellulose) (HPC)) of the same molecule?
A: 101 % of control

Q: Which results are given for CC(=NC(C)C)N1CCCCC1?
A: T/C [5]: 101 % of control; T/C (dose: 100.0 mg/kg/injection, schedule: Q01DX009 (ip), vehicle: saline): 101 % of control

Q: Which results are given for COc1cc(Cc2nc3n(O)cc(C)nc-3c(=N)n2)cc(OC)c1OC?
A: T/C (dose: 12.5 mg/kg/injection, schedule: Q01DX009 (ip), vehicle: saline): 99 % of control; T/C (dose: 25.0 mg/kg/injection, schedule: Q01DX009 (ip), vehicle: saline): 105 % of control; T/C [5]: 108 % of control

Q: With CC(=O)c1ccc(N=C2c3ccccc3CN2c2ccc(C(C)=O)cc2)cc1 as the molecule, how does the T/C (dose: 50.0 mg/kg/injection, schedule: Q01DX005 (ip), vehicle: saline with Tween-80) read?
A: 88 % of control

Q: What about the T/C (dose: 100.0 mg/kg/injection, schedule: Q01DX005 (ip), vehicle: saline with Tween-80) of the same molecule?
A: 89 % of control

Q: With CC(C)c1oc(=O)cc2c1C(O)C1OC(=O)C3(C)C(O)C4OC4C2(C)C13 (stereo unspecified) as the molecule, how does the T/C (dose: 15.0 mg/kg/injection, schedule: Q01DX005 (ip), vehicle: Klucel (hydroxypropylcellulose) (HPC)) read?
A: 103 % of control and 105 % of control

Q: What about the T/C (dose: 30.0 mg/kg/injection, schedule: Q01DX005 (ip), vehicle: Klucel (hydroxypropylcellulose) (HPC)) of the same molecule?
A: 103 % of control and 107 % of control

Q: And the T/C [1]?
A: 120 % of control

Q: And the T/C [2]?
A: 111 % of control
